The values that follow come from patent publication US20110021471A1, “REDUCING Abeta42 LEVELS AND Abeta AGGREGATION” (priority 2007, published 2011).

Series [1] concerns 7PA2 cells (CHO cells stably expressing human APP751 V717F). As to the kind of experiment: 7PA2 cells: Aβ oligomers (IP/western) and Aβ ELISA. In kind it is cell-based, Chinese hamster. As to the method: FIG. 17. γ-secretase modulators decrease the production of cell derived Aβ oligomers. CHO cells stably expressing human APP751 containing the familial Alzheimer's disease mutation V717F (referred to as 7PA2 cells) were incubated for ˜16 hours in the presence of GSMs. […] Aβ40 levels were decreased to varying degrees (26-35%; Li-Cor Odyssey). (B) and (C) Because the extended incubation times necessary to reliably detect Aβ oligomers in this assay can be toxic, we carried out additional dose response studies with fenofibrate and FT-9 to verify that decreases in Aβ oligomers levels were not related to toxicity or global inhibition of Aβ production. […] (C) Increasing doses of FT-9 reduced the detection of Aβ oligomeric bands and Aβ42 decreased preferentially with decreases in Aβ40 at higher doses. […] Aβ species present in conditioned medium were detected by IP using the polyclonal anti-Aβ antibody, DW6 and subsequent immunoblotting with either 6E10 or the 42-specific, anti-Aβ antibody 21F12. Aβ levels in the samples analyzed via IP/western were also quantified via sandwich ELISA. Data presented as percent vehicle control±s.e.m., n=2.
To address the question of whether GSMs influence the concentration of secreted amyloid-β oligomers, such as those released by Chinese hamster ovary (CHO) cells expressing the APP V717F mutation (referred to as 7PA2 cells), which alter long-term potentiation and perturb the memory of learned behavior when injected into rat brain, 7PA2 cells were treated with two Aβ42-raising GSMs and a novel Aβ42-lowering GSM (FIG. 17) (Walsh et al., Nature 416:535:539 (2002); Calabrese et al., Mol. Cell. Neurosci. 35:183-193 (2007)). Fenofibrate and FT-1 increased amounts of Aβ42 whereas FT-9 lowered Aβ42, but all three GSMs decreased amounts of amyloid-β dimers and trimers. […] In contrast to increased amyloid-β oligomer formation, when CHO cells are genetically manipulated to increase Aβ42 production by co-expression of APP and FAD-linked mutant PSEN1 proteins, both Aβ42-lowering and -raising GSMs decreased oligomer formation (Xia et al., J. Biol. Chem. 272: 7977-7982 (1997)).
A general note: ELISA stands for enzyme-linked immunosorbent assay.

The target of a further series is Aβ42 (Homo sapiens, UniProt P05067). The series can be described thus: Aβ42 aggregation in vitro (native gel electrophoresis). The series is classed as biochemical. The conditions noted are these: 1 μM, 37° C. As to the method: FIG. 2. Aβ modulating agents can inhibit Aβ aggregation, and agents that bind Aβ amyloid can modulate Aβ42 production. […] (C) Aβ42 modulating agents inhibit naturally secreted oligomer formation. 7PA2 cells were treated with fenofibrate, FT-1, or FT-9 at 50 μM and oligomers assessed by IP Western blotting. […] (D) FT-9, an Aβ42 reducing agent, can inhibit Aβ42 aggregation in vitro.
Aβ42, sequence (P05067 672-713 limits assumed): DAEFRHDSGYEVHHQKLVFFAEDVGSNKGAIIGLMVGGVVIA

The next series concerns H4Bri-C99 (CTF-3). The procedure:
FIG. 6. […] Parent GSMs and biotin tagged photoactivatable GSMs were evaluated for their effects on Aβ secreted from H4Bri-C99 (CTF-3). Cells were treated with compounds for 6 hours and Aβ measured by ELISA. […] Changes in Aβ (percent control)±s.e.m., n=3.
(§1) Photoaffinity labelling. All experiments used the following general protocol. Samples (recombinant or synthetic peptides, cell lysates and membrane preparations) were exposed in borosilicate test tubes to ultraviolet light (350 nm) in a Rayonet Photoreactor R100 (RPR-3500 lamps, Southern New England Ultra Violet Company) in a cold room (4° C.) for 30 minutes or as otherwise noted. Crosslinked samples were analyzed by ELISA for biotin incorporation, or analyzed directly by SDS-PAGE (Criterion-XT, Bio-Rad), or after precipitation with streptavidin ultralink plus beads (Pierce). After immunblotting, proteins were detected using chemiluminesence (ECL Plus, GEHealthcare) or near-infrared fluorescence (LiCor Odyssey). Full-length APP and APP CTFs (CTF83, CTF99) were detected with CT20, a rabbit polyclonal antibody against the C-terminus of APP. Biotin was detected with an affinity-purified rabbit polyclonal antibody (Bethyl). Cell-based screens for amyloid-β modulation. Human H4 neuroglioma cells (American Type Culture Collection, ATCC) expressing wild-type APP695 protein or CTF105 fused to secreted alkaline phosphatase which is efficiently processed to APP CTFs (CTF83, CTF99) and produce high levels of amyloid-β, were used for the cell-based screens as previously described. Cells were incubated for 5-6 hours in the presence of the various compounds in Opti-Mem culture medium containing 1% fetal bovine serum. Compounds were dissolved in dimethylsulphoxide (DMSO; 0.5% final concentration) and diluted 200-fold. Media was analyzed for various amyloid-β species (40, 42 and total) using ELISAs as described herein. The EC50 values for changes in amyloid-β species were calculated by fitting sigmoid dose-response curves using nonlinear regression in Prism (GraphPad) and are shown as values±s.e.m. Statistical analysis. Data are presented as either percentage control or mean±s.e.m. Results were analyzed using Prism (Graph Pad) with t-tests or one-way analysis of variance analyses (ANOVAs) with Dunnett's post-hoc correction for comparison of multiple samples to a control. Statistical significance is shown as P,0.05 (one asterisk), P,0.01 (two asterisks) or P,0.001 (three asterisks).

The target in a further series is γ-secretase (Homo sapiens, UniProt P49768). The series can be described thus: Cell-free in vitro γ-secretase assay. The series is classed as biochemical. As to the method:
FIG. 5. Fenofibrate-Biotin (Fen-B) is an Aβ42 raising GSM that labels cell-derived APP-CTF. (A) The effects of fenofibrate and fenofibrate-biotin (Fen-B) on Aβ production were investigated in a cell-free in vitro γ-secretase assay performed as described in the methods. […] Percent control Aβ species±s.e.m., n=2. (B) Fen-B labels APP-CTFs from cells lysates. CHAPSO solubilized membrane fractions from H4 APP-CTF-105-AP cells were irradiated (350 nm) in the presence of Fen-B (50 μM) for 30 minutes. Biotinylated material was precipitated with streptavidin overnight (SAv). Beads were washed (3×) and then incubated with XT sample buffer, heated to 95° C., run on 12% Criterion XT gels, and transferred to nitrocellulose membranes. Blots were probed for biotin (Bethyl) and APP (CT20). Excess drug (Fen-B) and unlableled APP-CTF is detected in the flow-through from the beads (unbound lane). Biotin bound to streptavdin (SAv) is detected by the anti-biotin antibody. APP-CTF-83 is pulled down in lane 2 and is reactive with anti-biotin and anti-APP (CT20).
Congo red (CR) and chrysamine G (CG), two of the most well characterized amyloid-β dyes, act as GSMs in cell-free γ-secretase assays.

Series [2] concerns the target T1, γ-secretase (PSEN1, NCSTN, APH1, PEN2) (UniProt +P49768+Q96BI3+Q9NZ42).
T1 construct: made in house; host or cells: CHO c-30 (γ-30) cells
As to the kind of experiment: Photoaffinity labelling of purified γ-secretase preparation. In kind it is binding. The conditions noted are these: Fen-B 300 μM.

For another series, the target named is T2, APP(C100)-Flag (Homo sapiens, UniProt P05067).
T2 construct: APP(C100)-Flag, comprising the 99 C-terminal residues of APP plus a methionine at the N-terminus; added methionine (N)
T2 sequence (P05067 672-770 limits assumed): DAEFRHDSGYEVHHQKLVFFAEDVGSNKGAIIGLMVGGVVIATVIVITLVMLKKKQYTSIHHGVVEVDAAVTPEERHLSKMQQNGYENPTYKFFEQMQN
As to the kind of experiment: Photoaffinity labelling of APP(C100)-Flag and competition. The series is classed as binding. As to the method:
(§2) FIG. 1. […] The top panel is for anti-biotin staining; the middle panel is for anti-FLAG staining; and the bottom panel is an overlay of anti-biotin (red and anti-Flag green, LiCor Odyssey imaging). (E) Same samples as in D, but analyzed using an ELISA. Following crosslinking, C100Flag and N100 Flag were captured using anti-FLAG plate, and biotin incorporation was measured using streptavidin-HRP. […] Fen-B (50 μM) was crosslinked to Aβ (10 μM). Biotin labeling was measured following capture with an anti-Aβ1-16 antibody and detection with streptavidin-HRP.
as §1
The ability of a purified, recombinant Flag-tagged γ-secretase substrate derived from APP (APP(C100)-Flag, comprising the 99 C-terminal residues of APP plus a methionine at the N-terminus) to be labeled by Fen-B and Flurbi-BpB was tested.

The target in a further series is T3, Notch (C100)-Flag (Mus musculus, UniProt Q01705).
T3 construct: a recombinant substrate derived from mouse Notch (Notch (C100)-Flag)
T3 sequence (Q01705 1711-1809 limits assumed): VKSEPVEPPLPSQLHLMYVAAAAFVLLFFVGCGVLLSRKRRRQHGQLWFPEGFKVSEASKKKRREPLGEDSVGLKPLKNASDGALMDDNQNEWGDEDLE
The series can be described thus: Photoaffinity labelling of Notch (C100)-Flag. In kind it is binding. The procedure:
Photoaffinity labelling. All experiments used the following general protocol. Samples (recombinant or synthetic peptides, cell lysates and membrane preparations) were exposed in borosilicate test tubes to ultraviolet light (350 nm) in a Rayonet Photoreactor R100 (RPR-3500 lamps, Southern New England Ultra Violet Company) in a cold room (4° C.) for 30 minutes or as otherwise noted. Crosslinked samples were analyzed by ELISA for biotin incorporation, or analyzed directly by SDS-PAGE (Criterion-XT, Bio-Rad), or after precipitation with streptavidin ultralink plus beads (Pierce). After immunblotting, proteins were detected using chemiluminesence (ECL Plus, GEHealthcare) or near-infrared fluorescence (LiCor Odyssey). Full-length APP and APP CTFs (CTF83, CTF99) were detected with CT20, a rabbit polyclonal antibody against the C-terminus of APP. Biotin was detected with an affinity-purified rabbit polyclonal antibody (Bethyl). Cell-based screens for amyloid-β modulation. […] Media was analyzed for various amyloid-β species (40, 42 and total) using ELISAs as described herein. The EC50 values for changes in amyloid-β species were calculated by fitting sigmoid dose-response curves using nonlinear regression in Prism (GraphPad) and are shown as values±s.e.m. […]

For series [3], the target named is amyloid-β peptides (Aβ1-40, Aβ1-36, Aβ1-28, Flag-Aβ25-36) (Homo sapiens, UniProt P05067). As to the kind of experiment: Photoaffinity labelling of amyloid-β peptides. The series is classed as binding. The procedure: as §2, §1
Because the putative binding region of GSMs is also found in full-length APP, labeling of both APP fragments in cells was assayed.

Another series concerns the target T4, APP-CTF (Homo sapiens, UniProt P05067).
T4 construct: this protein was designated α-secretase-derived APP CTF (CTF83) on the basis of molecular weight; expressed in transfected cells
As to the kind of experiment: Photoaffinity labelling of APP and APP CTF in H4 cell membrane fractions and competition. The conditions noted are these: microsomal membrane fractions from H4 cells expressing wild-type APP. The series is classed as binding. The procedure:
Photoaffinity labelling. All experiments used the following general protocol. Samples (recombinant or synthetic peptides, cell lysates and membrane preparations) were exposed in borosilicate test tubes to ultraviolet light (350 nm) in a Rayonet Photoreactor R100 (RPR-3500 lamps, Southern New England Ultra Violet Company) in a cold room (4° C.) for 30 minutes or as otherwise noted. Crosslinked samples were analyzed by ELISA for biotin incorporation, or analyzed directly by SDS-PAGE (Criterion-XT, Bio-Rad), or after precipitation with streptavidin ultralink plus beads (Pierce). After immunblotting, proteins were detected using chemiluminesence (ECL Plus, GEHealthcare) or near-infrared fluorescence (LiCor Odyssey). Full-length APP and APP CTFs (CTF83, CTF99) were detected with CT20, a rabbit polyclonal antibody against the C-terminus of APP. Biotin was detected with an affinity-purified rabbit polyclonal antibody (Bethyl). Cell-based screens for amyloid-β modulation.

[4] abbreviates: FT-9 and FT-1 20 μM, fenofibrate 100 μM, ~16 hours.

Structures are written as SMILES.

T4 sequence (P05067 688-770 limits assumed): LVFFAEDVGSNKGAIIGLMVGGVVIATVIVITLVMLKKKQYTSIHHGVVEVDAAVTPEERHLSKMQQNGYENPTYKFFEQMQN

`CC(C(=O)O)c1cccc(Oc2cc(Cl)cc(Cl)c2)c1` (centres unmarked) [FT-9, 2-(3-(3,5-dichlorophenoxy)phenyl)propanoic acid]: the “total Aβ (ELISA) in dose response studies” value in series [1] is listed as “did not decrease”. For the same compound, in [1] (50 μM, IP Western blotting), the “naturally secreted oligomer formation” value is on record as “inhibit oligomer formation”. In addition, in [1] (setting [4]), the “Aβ42 production in 7PA2 cells” value is on record as “lowers Aβ42”; the “dimeric and trimeric Aβ species” value was “reduce production of dimeric and trimeric Aβ species”. The “Aβ42 aggregation in vitro” value on Aβ42 is reported as “inhibits Aβ42 aggregation”.

On to `CC(C)(Oc1ccc(C(=O)c2ccc(Cl)cc2)cc1)C(=O)NCCCCCNC(=O)CCCCC1SCC2NC(=O)NC21` (centres unmarked) [Fen-B, N-(5-(2-(4-(4-chlorobenzoyl)phenoxy)-2-methylpropanamido)pentyl)-5-(2-oxo-hexahydro-1H-thieno[3,4-d]imidazol-4-yl)pentanamide], for which the “Toxicity, based on cell morphology and XTT assay” value in the series on H4Bri-C99 (CTF-3) is “toxic at higher doses”. Besides, the Aβ42 increase in the series on H4Bri-C99 (CTF-3) (33 μM, 6 hours) is listed as ~200%. Also, the “Aβ42 in cell-free γ-secretase assay” value at γ-secretase was “raise Aβ42 with similar potencies”. In [2], the “labeling of γ-secretase components” value was “Absence of PS1, NCT, APH1, and Pen2 labeling”. The “labeling of APP(C100)-Flag” value at APP(C100)-Flag was “label a recombinant APP c-secretase substrate (APP(C100)-Flag) with similar potency”. Also, the “labeling of CTF-γ (CTF-50)” value on APP(C100)-Flag (peptides 5 μM, Fen-B 25 μM, 30 minutes) is “no evidence for binding to CTF-γ”. On Notch (C100)-Flag, the “labeling of Notch (C100)-Flag” value is “less efficient than Fen-B labeling of the APP(C100)-Flag”. In addition, in series [3], the “labeling of Aβ1-28” value is on record as “did not label”, the “labeling of Aβ1-36” value is recorded as “efficiently labeled”, the “labeling of Aβ1-40” value is on record as “efficiently labeled” and the “labeling of Flag-tagged Aβ25-36” value is recorded as “preferentially label”. Besides, on APP-CTF, the “labeling of full-length APP and APP CTFs” value was “labeled full-length APP and APP CTFs”.
